# Measured values: patent publication US6368552B1, “Water treating agent and water treating method” (Kurita Water Industries Ltd., priority 1999, dated 2002)
# Assays:
# [1] = Removal of dissolved oxygen by potassium erysorbate at 60° C., 10 minutes; conditions: 100 mg potassium erysorbate per liter, pH of test soln. as in row (6.5-10.5)
# Method: In a constant temperature bath held at 60° C., one liter of deionized water of a pH of 6.5 was stirred for one hour so as to saturate it with atmospheric oxygen and the oxygen concentration was measured by a dissolved oxygen meter (MOCA 3600 of the firm Orbisphere Laboratories). 100 mg of potassium erysorbate were added to the water and the mixture was agitated sufficiently, before the solution was poured into a 200 ml incubation bottle to fill it completely therewith, whereupon a closure stopper was fitted into the bottle so as to exclude any rest of gas space therein and the bottle was returned to the constant temperature bath of 60° C. to subject the solution to reaction for 10 minutes. After 10 minutes, the bottle was taken out of the bath and the dissolved oxygen concentration therein was detected by the dissolved oxygen meter. The rate of removal of dissolved oxygen is calculated from the proportion of the dissolved oxygen concentration after the addition of potassium erysorbate versus the dissolved oxygen concentration before the addition of potassium erysorbate (Comparative Example 15).
# Test solutions were prepared from each one liter of deionized water by adjusting the pH thereof at 7.5, 9.0 and 10.5, respectively, by adding sodium hydroxide thereto as alkali reagent. […]
# [2] = Autoclave test of transference of the chemical from liquid water phase to steam phase at 200° C. (gas chromatography); format: physicochemical; conditions: autoclave 200° C.; for Conc. of chemical in water / Conc. of chemical in steam: 200 mg/liter aqueous solution, pH 11.5 with sodium hydroxide; for Conc. of chemical in water: liquid phase sample; for Conc. of chemical in steam: steam phase sample
# Method: Each 50 ml of samples were taken from the steam phase and from the liquid phase directly after the temperature had reached at 200° C., which were analyzed for the concentration of the chemical on a gas chromatography. The ratio of the concentration of chemical in the steam phase versus the concentration of chemical in the liquid phase was calculated.
SMILES,Rate of O2 remov. [1] [%],Conc. of chemical in water [2] [µg/mL],Conc. of chemical in steam [2] [µg/mL],Conc. ratio Cs/Cw (concentration in the steam phase/concentration in liquid water phase) ([2]; pH 11.5),Transference from the liquid water phase to the steam phase [2],"Converted into gluconic acid (with some decomposition into other compounds) ([2]; liquid water phase, pH 11.5)"
"O=C1O[C@H]([C@H](O)CO)C([O-])=C1O.[K+] [compound 15, potassium erysorbate]",30.1,,,,,
"CCCCCC1CCC(=O)O1 (stereo not drawn) [Example 1, γ-nonalactone]",,188,207,1.10,,
"CCCCCCC1CCC(=O)O1 (stereo not drawn) [Example 2, γ-decalactone]",,187,120,0.64,,
"C=CCc1ccc(O)c(OC)c1 [Example 4, Eugenol]",,184,418,2.27,,
"O=C1O[C@H](CO)[C@@H](O)[C@H](O)[C@H]1O [compound 1, glucono-δ-lactone, reference compound]",,<1,<1,<0.01,almost no transference,*2) Converted into 173 mg/l of gluconic acid with some decomposition into other compounds.
"CC=Cc1ccc(O)c(OC)c1 [Example 5, Isoeugenol]",,186,453,2.44,,
